Test results: US20250051362A1, “SUBSTITUTED FUSED HETEROCYCLIC COMPOUND, AND PREPARATION METHOD THEREFOR AND USE THEREOF” (Shanghai Annova Biotechnology Co., Ltd., priority 2021, published 2025)

Columns and labels:
[1] = test system: human colon cancer LoVo cells; assay: Cell proliferation inhibition assay (CellTiter-Glo); format: cell-based; conditions: LoVo cells, 96 hours incubation; for Emax: read-out: Max Inhibition
Source text: Experimental method: A CellTiter-Glo cell viability assay kit was used to test the inhibitory effect of the compounds on the in vitro proliferation of human colon cancer LoVo cells.
Experimental materials: LoVo cells (ATCC, Cat. No. CCL-29); F-12K medium (Invitrogen, Cat. No. 21127-022); fetal bovine serum (Biological Industries, Cat. No. 04-002-1A); GlutaMAX (Gibco, Cat. No. 35050-061); 0.25% trypsin-EDTA (Invitrogen, Cat. No. 25200-072); CellTiter-Glo kit (Promega, Cat. No. G7558).
Experimental procedure: (1) F-12K medium, fetal bovine serum and GlutaMAX were formulated into a complete medium for culturing LoVo cells; (2) well-grown LoVo cells were taken, digested with trypsin and transferred to a centrifuge tube, and centrifuged; the supernatant was discarded, and cells were resuspended by adding a fresh medium and counted by a Vi-CELL XR cell counter; the density of the cell suspension was adjusted to 25,000 to 30,000 cells/mL, and the cell suspension was added at 100 μL/well in a 96-well cell culture plate, while a blank control group was set up with no cells added, and the cell culture plate was incubated in a carbon dioxide incubator overnight; (3) a DMSO solution of the compound to be tested was dispensed into the above 96-well cell culture plate using an HP D300 ultra-micro sampler, with 0.5 μL of the solution per well and 10 concentrations for each compound (3× dilution), while a DMSO control group with no compound added was set up, and the plate was continued to be incubated in a carbon dioxide incubator for 96 hours; (4) the cell culture plate was taken out and equilibrated to room temperature, with 100 μL of a CellTiter-Glo reagent added to each well, and then the plate was kept away from light, shaken for 10 minutes and then incubated for 10 minutes; (5) the cell culture plate was put into EnSpire for plate reading, and the luminescence value RLU was recorded.
Data processing: (1) The inhibition rate was calculated from the luminescence values: “RLUDMSO” is the luminescence value of the DMSO control group without compound, “RLUblank” is the luminescence value of the blank control group without cells, and “RLUcompound” is the luminescence value of the compound test group, and the inhibition rate=[1−(RLUcompound−RLUblank)/(RLUDMSO−RLUblank)]×100%; (2) with curve fitting using the Excel add-on XLFit, the IC50 value was calculated.

ATR kinase = ATR kinase (Homo sapiens (Human), UniProt Q13535); assay: In vitro ATR kinase inhibition assay (Mobility Shift Assay, Caliper EZ Reader); format: biochemical; conditions: ATP concentration of Km; 4 h at 28° C.
Protocol: Experimental method: The inhibitory activity of the compounds on ATR kinase in vitro was determined by Mobility Shift Assay at an ATP concentration of Km using Caliper EZ Reader as a mobility shift assaying technology based on microfluidic chip technology.
Experimental procedure: (1) The compounds to be tested were dissolved in DMSO and serially diluted 4× for a total of 10 concentrations; (2) 0.06 μL of the compounds at different concentrations were pipetted into a 384-well plate using an Echo pipetting system; (3) a 2× kinase solution with a concentration of 10 nM ATR kinase was prepared from the ATR kinase and the 1× kinase buffer; and a 2× substrate solution with a concentration of 6 μM 5-FAM-AK-17 and 4 μM ATP was prepared from 5-FAM-AK-17, ATP and the 1× kinase buffer; (4) 10 μL of the 2× kinase solution was added into the 384-well plate and incubated for 10 min at room temperature; 10 μL of the 2× substrate solution was then added and incubated for 4 h at 28° C.; (5) 30 μL of the termination buffer was added to terminate the reaction, and then the 384-well plate was put into the Caliper EZ Reader to read the conversion rate data.

ATR kinase, sequence (Q13535 whole entry): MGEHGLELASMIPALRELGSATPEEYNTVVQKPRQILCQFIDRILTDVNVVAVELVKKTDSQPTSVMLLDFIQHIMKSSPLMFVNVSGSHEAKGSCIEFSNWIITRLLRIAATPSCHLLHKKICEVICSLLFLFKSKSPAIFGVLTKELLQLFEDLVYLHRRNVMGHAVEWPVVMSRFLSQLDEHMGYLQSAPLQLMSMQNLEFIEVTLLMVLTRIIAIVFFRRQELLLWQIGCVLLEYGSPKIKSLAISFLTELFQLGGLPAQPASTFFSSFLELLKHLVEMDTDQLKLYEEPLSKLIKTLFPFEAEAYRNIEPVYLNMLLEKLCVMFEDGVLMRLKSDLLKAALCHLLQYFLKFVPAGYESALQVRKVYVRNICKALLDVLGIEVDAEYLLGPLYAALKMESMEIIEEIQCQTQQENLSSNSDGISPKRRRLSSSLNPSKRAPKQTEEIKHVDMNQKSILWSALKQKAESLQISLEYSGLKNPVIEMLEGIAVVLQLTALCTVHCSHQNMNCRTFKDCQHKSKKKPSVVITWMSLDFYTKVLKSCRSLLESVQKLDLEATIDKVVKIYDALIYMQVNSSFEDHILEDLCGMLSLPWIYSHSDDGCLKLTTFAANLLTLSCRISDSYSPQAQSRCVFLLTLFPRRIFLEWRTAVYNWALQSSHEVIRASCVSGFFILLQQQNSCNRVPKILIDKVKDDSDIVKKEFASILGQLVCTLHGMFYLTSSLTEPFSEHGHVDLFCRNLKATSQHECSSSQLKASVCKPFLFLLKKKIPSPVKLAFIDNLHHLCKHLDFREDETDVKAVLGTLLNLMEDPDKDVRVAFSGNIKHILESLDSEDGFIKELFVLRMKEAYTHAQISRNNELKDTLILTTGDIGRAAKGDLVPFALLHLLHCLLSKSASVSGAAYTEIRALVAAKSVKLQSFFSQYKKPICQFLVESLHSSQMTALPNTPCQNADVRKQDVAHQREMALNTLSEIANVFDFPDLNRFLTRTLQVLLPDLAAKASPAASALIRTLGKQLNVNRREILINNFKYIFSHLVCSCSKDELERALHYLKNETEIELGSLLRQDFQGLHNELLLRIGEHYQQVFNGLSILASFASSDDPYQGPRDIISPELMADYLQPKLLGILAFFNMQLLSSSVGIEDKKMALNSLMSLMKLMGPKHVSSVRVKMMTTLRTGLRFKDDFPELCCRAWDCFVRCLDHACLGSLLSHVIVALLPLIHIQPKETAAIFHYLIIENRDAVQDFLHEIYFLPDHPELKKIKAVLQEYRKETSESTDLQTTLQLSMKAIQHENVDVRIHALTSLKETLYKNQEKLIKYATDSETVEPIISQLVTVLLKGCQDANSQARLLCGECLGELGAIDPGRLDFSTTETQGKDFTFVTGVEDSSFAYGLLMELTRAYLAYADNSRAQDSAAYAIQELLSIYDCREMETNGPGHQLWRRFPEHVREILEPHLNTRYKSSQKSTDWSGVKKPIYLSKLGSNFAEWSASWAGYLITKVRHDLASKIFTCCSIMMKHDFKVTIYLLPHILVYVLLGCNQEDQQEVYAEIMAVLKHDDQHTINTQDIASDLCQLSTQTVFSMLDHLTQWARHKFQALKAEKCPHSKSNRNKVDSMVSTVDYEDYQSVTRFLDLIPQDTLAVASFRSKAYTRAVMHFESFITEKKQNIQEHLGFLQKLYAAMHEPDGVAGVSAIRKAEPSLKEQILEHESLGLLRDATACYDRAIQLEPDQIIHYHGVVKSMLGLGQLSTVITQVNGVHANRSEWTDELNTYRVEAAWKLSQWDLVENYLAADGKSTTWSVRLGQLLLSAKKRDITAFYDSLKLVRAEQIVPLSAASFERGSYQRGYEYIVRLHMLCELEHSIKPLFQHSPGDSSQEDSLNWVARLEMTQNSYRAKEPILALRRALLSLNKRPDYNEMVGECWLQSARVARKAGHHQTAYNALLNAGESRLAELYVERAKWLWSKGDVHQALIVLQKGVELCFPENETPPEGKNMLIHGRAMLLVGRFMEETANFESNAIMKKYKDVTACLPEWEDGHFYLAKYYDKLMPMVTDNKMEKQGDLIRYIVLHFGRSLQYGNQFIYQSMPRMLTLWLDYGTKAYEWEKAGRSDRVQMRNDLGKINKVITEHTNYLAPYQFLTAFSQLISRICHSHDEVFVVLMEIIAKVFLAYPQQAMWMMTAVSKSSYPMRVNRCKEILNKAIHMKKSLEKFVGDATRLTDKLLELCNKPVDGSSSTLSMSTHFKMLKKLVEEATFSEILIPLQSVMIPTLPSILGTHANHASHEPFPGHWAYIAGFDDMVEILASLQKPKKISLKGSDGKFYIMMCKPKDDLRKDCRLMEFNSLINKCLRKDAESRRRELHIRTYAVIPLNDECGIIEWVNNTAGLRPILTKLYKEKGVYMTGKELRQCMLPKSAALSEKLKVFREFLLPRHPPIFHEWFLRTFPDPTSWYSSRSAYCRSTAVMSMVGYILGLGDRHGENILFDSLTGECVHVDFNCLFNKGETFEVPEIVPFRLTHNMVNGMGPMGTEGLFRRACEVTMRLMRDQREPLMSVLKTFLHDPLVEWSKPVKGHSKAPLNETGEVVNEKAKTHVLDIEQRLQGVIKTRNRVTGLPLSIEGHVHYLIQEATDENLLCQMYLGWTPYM
ATR kinase, sequence (Q8WXE1 whole entry partner): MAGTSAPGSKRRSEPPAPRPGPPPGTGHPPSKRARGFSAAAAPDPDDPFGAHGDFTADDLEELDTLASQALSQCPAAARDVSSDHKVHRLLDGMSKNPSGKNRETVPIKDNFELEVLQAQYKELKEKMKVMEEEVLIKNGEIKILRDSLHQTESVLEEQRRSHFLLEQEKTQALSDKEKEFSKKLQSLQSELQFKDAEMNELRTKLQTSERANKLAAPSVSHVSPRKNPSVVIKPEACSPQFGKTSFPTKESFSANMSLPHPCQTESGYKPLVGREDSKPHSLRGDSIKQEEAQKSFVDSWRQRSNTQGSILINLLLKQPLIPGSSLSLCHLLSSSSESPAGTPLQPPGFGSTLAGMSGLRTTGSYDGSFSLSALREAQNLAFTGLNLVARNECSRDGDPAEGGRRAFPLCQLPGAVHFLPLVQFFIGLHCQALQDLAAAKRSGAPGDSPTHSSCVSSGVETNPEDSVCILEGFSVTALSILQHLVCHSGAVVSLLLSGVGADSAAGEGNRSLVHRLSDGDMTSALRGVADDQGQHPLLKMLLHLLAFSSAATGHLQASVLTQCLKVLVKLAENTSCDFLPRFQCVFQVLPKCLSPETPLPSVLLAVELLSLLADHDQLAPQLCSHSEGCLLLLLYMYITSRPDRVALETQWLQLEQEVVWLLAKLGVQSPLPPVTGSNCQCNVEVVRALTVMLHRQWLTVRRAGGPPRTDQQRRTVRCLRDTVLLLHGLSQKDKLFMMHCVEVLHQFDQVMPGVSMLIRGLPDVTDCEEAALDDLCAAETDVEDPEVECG

SMILES	IC50 (ATR kinase) [nM]	IC50 [1] [nM]	Emax ([1]; Homo sapiens) [%]	IC50 ([1]; Homo sapiens) [nM]	Max Inhibition [1] [%]
C[C@@H]1COCCN1c1nc(-c2ccnc3[nH]ccc23)nc2c1cnn2S(C)(=O)=O [Compound 23, (R)-3-methyl-4-(1-(methylsulfonyl)-6-(1H-pyrrolo[2,3-b]pyridin-4-yl)-1H-pyrazolo[3,4-d]pyrimidin-4-yl)morpholine]	15		92	740	
C[C@@H]1COCCN1c1cc(-c2ccnc3[nH]ccc23)nc2c1ncn2S(C)(=O)=O [Compound 24, (R)-3-methyl-4-(3-(methylsulfonyl)-5-(1H-pyrrolo[2,3-b]pyridin-4-yl)-3H-imidazo[4,5-b]pyridin-7-yl)morpholine]	15		92		
C[C@@H]1COCCN1c1nc(-c2cncc3[nH]ccc23)cc2c1ncn2S(C)(=O)=O [Compound 25, (R)-3-methyl-4-(1-(methylsulfonyl)-6-(1H-pyrrolo[2,3-c]pyridin-4-yl)-1H-imidazo[4,5-c]pyridin-4-yl)morpholine]	9.4		89		
C[C@@H]1COCCN1c1nc(-c2ccnc3[nH]ccc23)cc2c1ccn2S(C)(=O)=O [Compound 26, (R)-3-methyl-4-(1-(methylsulfonyl)-6-(1H-pyrrolo[2,3-b]pyridin-4-yl)-1H-pyrrolo[3,2-c]pyridin-4-yl)morpholine]	8.6		92		
Cc1cc(-c2nc(N3CCOC[C@H]3C)c3ccn(S(C)(=O)=O)c3n2)c2cc[nH]c2c1 [Compound 29, (R)-3-methyl-4-(2-(6-methyl-1H-indol-4-yl)-7-(methylsulfonyl)-7H-pyrrolo[2,3-d]pyrimidin-4-yl)morpholine]	2.3		94		
COc1cc(-c2nc(N3CCOC[C@H]3C)c3ccn(S(C)(=O)=O)c3n2)c2cc[nH]c2c1 [Compound 32, (R)-4-(2-(6-methoxy-1H-indol-4-yl)-7-(methylsulfonyl)-7H-pyrrolo[2,3-d]pyrimidin-4-yl)-3-methylmorpholine]	5.3		95		
CCS(=O)(=O)n1ccc2c(N3CCOC[C@H]3C)nc(-c3ccnc4[nH]ccc34)nc21 [Compound 33, (R)-4-(7-(ethylsulfonyl)-2-(1H-pyrrolo[2,3-b]pyridin-4-yl)-7H-pyrrolo[2,3-d]pyrimidin-4-yl)-3-methylmorpholine]	5		92		
C[C@@H]1COCCN1c1nc(-c2ccnc3[nH]ccc23)nc2c1ccn2S(=O)(=O)N(C)C [Compound 34, (R)-N,N-dimethyl-4-(3-methylmorpholinyl)-2-(1H-pyrrolo[2,3-b]pyridin-4-yl)-7H-pyrrolo[2,3-d]pyrimidine-7-sulfamide]	7.1	290			93

The remaining compounds from weak to strong by IC50 (ATR kinase), led by results:

IC50 (ATR kinase) [nM]	IC50 [1] [nM]	SMILES	Emax ([1]; Homo sapiens) [%]	IC50 ([1]; Homo sapiens) [nM]	Max Inhibition [1] [%]
10		C[C@@H]1COCCN1c1nc(-c2ccnc3[nH]ccc23)nc2c1ncn2S(C)(=O)=O [Compound 22, (R)-3-methyl-4-(9-(methylsulfonyl)-2-(1H-pyrrolo[2,3-b]pyridin-4-yl)-9H-purin-6-yl)morpholine]	93		
9.4	1060	C[C@@H]1COCCN1c1nc(-c2cc(C#N)cc3[nH]ccc23)nc2c1ccn2S(C)(=O)=O [Compound 30, (R)-4-(4-(3-methylmorpholinyl)-7-(methylsulfonyl)-7H-pyrrolo[2,3-d]pyrimidin-2-yl)-1H-indol-6-carbonitrile]			93
4.4		C[C@@H]1COCCN1c1nc(-c2cc(Cl)cc3[nH]ccc23)nc2c1ccn2S(C)(=O)=O [Compound 31, (R)-4-(2-(6-chloro-1H-indol-4-yl)-7-(methylsulfonyl)-7H-pyrrolo[2,3-d]pyrimidin-4-yl)-3-methylmorpholine]	93		
4.1	100	CNc1nc2ccccc2n1-c1nc(N2CCOC[C@H]2C)c2ccn(S(C)(=O)=O)c2n1 [Compound 28, (R)-N-methyl-1-(4-(3-methylmorpholinyl)-7-(methylsulfonyl)-7H-pyrrolo[2,3-d]pyrimidin-2-yl)-1H-benzo[d]imidazol-2-amine]			92
1.6		C[C@@H]1COCCN1c1nc(-c2nc3ccccc3[nH]2)nc2c1ccn2S(C)(=O)=O [Compound 27, (R)-4-(2-(1H-benzo[d]imidazol-2-yl)-7-(methylsulfonyl)-7H-pyrrolo[2,3-d]pyrimidin-4-yl)-3-methylmorpholine]	94		
